“Also recorded” adds a separate entry of the source.
Columns and labels:
[1] = displacement of a pre-adsorbed FL-BP from CaP-coated culture wells by a different FL-BP; format: binding; settings: FIG. 1 Panel A
Experimental: FIG. 1, Panels A-C, illustrates displacement of an adsorbed fluorescently labeled BP (FL-BP) from a hydroxyapatite surface mimicking bone by a different fluorescently labeled BP. Synthetic bone/dentine (calcium phosphate, CaP)-coated culture wells were pre-treated with either ROX-RIS or 5-FAM-RIS (50 μM) After challenged by serially diluted doses of 5-FAM-RIS or ROX-RIS (from 0 to 50 μM), respectively, Carboxyl-X-Rhodamine (ROX) and carboxyfluorescein (FAM) fluorescence intensities of the CaP-coated wells were measured. Panel A: ROX-RIS in CaP (first bars of each set) remained near the pre-adsorbed 50 μM level until 5 μM or greater concentrations of 5-FAM-RIS challenged. In contrast, 5-FAM-RIS (second bars of each set) was rapidly displaced by concentrations of ROX-RIS as low as 1 μM. Panel B: Pre-adsorbed FAM-RIS was replaced by ROX-RIS between 10 μM to 50 μM. Panel C: The quantitative measurement of FAM and ROX fluorescent signals was conducted by standardized fluorescent biophotonics and a proprietary program (LAS3000, FUJIFILM, Tokyo, Japan).

[2] = system: ZOL-induced mouse BRONJ model; assay: ZOL-induced mouse BRONJ/ONJ model (ZOL IV injection followed by maxillary first molar extraction); format: in vivo; settings: for development of ONJ-like lesions at the tooth extraction sites: ZOL 500 μg/kg IV, intra-oral injection one day prior to extraction, 14 days after extraction, FIG. 21; for histology of maxilla at the tooth extraction site: ONJ-like lesion: 2 weeks after extraction, one time oral injection in ZOL-mice, FIG. 20; for development of ONJ-like lesions: FIG. 19C; for ZOL-injected mice with open oral wound: 500 μg/Kg ZOL via tail vein
Experimental: AF647-ZOL was applied by intra-oral injection or IV injection 1 day prior to tooth extraction. FIG. 16B are images of mouse maxilla and the oral mucosa inflammation and swelling (white dotted lines, left and right panels) with various degrees of jawbone exposure (arrow) at the tooth extraction site of ZOL-treated mice (BRONJ control: n−4). […]
Panel A is a diagram of the experimental time line. Mice treated by IV injection of ZOL (500 μg/kg) received an intra-oral injection of AF647-ZOL, MHDP or ETI (etidronate) one day prior to maxillary 1″ molar extraction. The development of ONJ was evaluated 14 days after tooth extraction.
The C57BL/6J (B6) mice model of ONJ is used. The consistent tissue source in this study is mouse maxillary bone with or without tooth extraction, as well as femurs, mandibles and L4/L5 lumber bones. Tooth extraction animal models for studying wound healing in mice have been well established in our and other laboratories. Systemic bisphosphonate treatment is accomplished by IV injection and the proposed local application of FL-BP is accomplished by intraoral injection to gingival/palatal tissue of mouse maxilla. Mice are subjected to maxillary molar extraction. After anesthesia and vital signs checked, the animal is placed on a bed supporting the isoflurane tubing while keeping the mouth opening. Ophthalmic ointment (bland, e.g., Lacrilube) is applied. The maxillary molar area is wiped with 0.12% Chlorhexidine gluconate solution (Peridex, oral rinse). An autoclaved dental explorer is used as an exodontia elevator after careful reflection of the cervical mucosa to minimize post-extraction discomfort. An autoclaved cotton swab is placed on the extraction socket until the initial blood coagulation is established. Maxillary 1st molar is then extracted unilaterally from so that the remaining untreated side can be utilized for chewing. In our previous experiments, the entire procedure takes about 5-15 minutes. […]
In a preliminary study female B6 mice were injected 500 μg/Kg ZOL (equivalent to 200 μl of 350 μM ZOL) via tail vein and one week later, maxillary left first molar was extracted. […]
Therefore, as schematically shown in FIG. 19B mouse maxillae were treated with ZOL and then either 2 μg of MHDP was orally injected to the site of the molar to be extracted or 100 μg of MHDP was IV injected and the sites of molar extraction of treated mouse maxilla were compared to controls.

Rap1A prenylation = assay: Western blot of Rap1A prenylation in J774 macrophages; format: cell-based, mouse; settings: 10 μM and 100 μM dose
[3] = hydroxyapatite (HAP) binding affinity, relative retention times normalized to RIS; settings: FIG. 7
Experimental: FIG. 7 is a bar graph showing hydroxyapatite (HAP) binding affinity of Zoledronate (ZOL), ROX-RIS, 5-FAM-ZOL, and AF647-ZOL. Relative retention times were normalized to RIS.
Hydroxyapatite assays indicate that the FL-BPs generally retain substantial affinity for bone mineral that reflect the affinity of the BP component and to a lesser extent, the affinity of the conjugated fluorophore. Hydroxyapatite (Macro-Prep® Ceramic hydroxyapatite Type II […]) was obtained from Bio-Rad Laboratories, Inc. Hercules, Calif. Accurately weighed hydroxyapatite powder (1.4-1.6 mg) was suspended in a 4 mL clear vial containing the appropriate volume of assay buffer (0.05% (wt/vol) Tween20, 10 μM EDTA and 100 mM HEPES pH=7.4) for 3 hours. Hydroxyapatite was then incubated with increasing amounts of FAM-BP and ROX-BP (0, 25, 50, 100, 200, and 300 μM). Samples were gently shaken for 3 hours at 37° C. in appropriate volume of assay buffer (0.05% (wt/vol) Tween20, 10 μM EDTA and 100 mM HEPES pH=7.4). Subsequent to the equilibrium period, the vials were centrifuged at 10,000 rpm for 5 minutes to separate the solids and the supernatant. 0.3 mL of the supernatant was collected and the equilibrium solution concentration is measured by using Shimadzu UV-VIS spectrometer. For the calibration series, FL-BP probe standards were prepared by serial dilution from the stock solution with the same isotherm buffer to give the range from 0 to 400 μM. Calibration curves were constructed using standard solutions of the target FL-BPs. Fluorescent emission can also be used to calculate the binding parameters. Nonspecific binding was measured with a similar procedure in the absence of hydroxyapatite as control. Binding parameters (Kd and Bmax, represent the equilibrium dissociate constant and maximum number of binding sites, respectively) were calculated using the PRISM program (Graphpad, USA). The binding parameters of each compound was measured in 5 independent experiments. […]

mouse maxilla = assay: preliminary study: fluorescent imaging of mouse maxilla after 5-FAM-ZOL IV or ROX-RIS intraoral injection; format: in vivo; settings: single intraoral 25 μl of 50 μM; 2 days after
Experimental: In a preliminary study female C57B16/J (B6) mice (8 weeks old) received either a single IV injection via tail vein of 200 μl of 350 μM 5-FAM-ZOL (5-FAM-ZOL, #BV111001, BioVinc LLC, Culver City, Calif.) or a single intraoral injection of 25 μl of 50 μM ROX-RIS (5(6)-ROX-RIS, #BV150101, BioVinc LLC, CA) to gingival/palatal tissue at maxillary left first molar (white arrow in FIG. 11). […], mice were euthanized 3 weeks after the IV injection of 5-FAM-ZOL or 2 days after the intraoral injection of ROX-RIS. Skulls (containing maxilla) were harvested and standardized fluorescent biophotonics image was obtained using an excitation wavelength of 460 nm and the 515 nm filter (LAS3000, FUJIFILM Corp).

[4] = system: mouse femur trabecular bone; assay: micro CT evaluation of mouse femur trabecular structure (anti-resorptive function in vivo); settings: for anti-resorptive effect: vs saline (0.9% NaCl) vehicle
Experimental: FIG. 19A to FIG. 19C present evidence that certain alkylidene bisphosphonates can be used to displace active BPs in vivo in the mouse model. […] FIG. 19B outlines the protocol for the experiments using MHDP to treat C57B16 mice. An ONJ-like lesion was generated by ZOL IV injection into the mouse, followed by extraction of the maxillary first molar. One day prior to the tooth extraction, a group of mice received intra-oral injection of 2 μg MHDP and another group received IV injection of 100 μg MHDP. FIG. 19C presents images of the mouse maxilla.
This study determines the anti-resorptive function of FL-BP in vivo, as compared to ZOL. Female B6 mice were injected with 50 μM ZOL (n=6), 50 μM FL-BP (n=6) or 0.9% NaCl vehicle solution (control: n=6) via tail vein. Three weeks later, mice were euthanized and femur and L4/L5 were harvested. After fixed in 10% buffered formalin, bone samples were subjected to micro CT analysis. The anti-resorptive function were quantitatively established by the trabecular bone three-dimensional morphometry (e.g., BV/TV, Tb.N, Tb.Th, TbSp). FL-BPs with minimal or no pharmacological BP function are used.
Mice were IV injected with 0.9% NaCl (vehicle solution), ZOL (184 μM×100 μL=5.0 μg/animal) or AF647-ZOL (184 μM×100 μL=22.0 μg/animal) and femurs were harvested 2 weeks after injection. The micro CT data were compared.

[5] = IV 184 μM×100 μL, femurs 2 weeks after injection

**Q.** Which “concentration of challenging 5-FAM-RIS up to which pre-adsorbed ROX-RIS remained near the pre-adsorbed level” value ([1]; CaP wells pre-treated with 50 μM ROX-RIS) does the source give for `O=C(NCC(O)C[n+]1cccc(CC(O)(P(=O)(O)O)P(=O)(O)O)c1)c1ccc(-c2c3ccc(=O)cc-3oc3cc(O)ccc23)c(C(=O)O)c1` (centres unmarked) [5-FAM-RIS] here?
**A.** ≥ 5 µM

**Q.** What does the source list for `CC(O)(P(=O)(O)O)P(=O)(O)O` [ETI, ethylene hydroxyl bisphosphonate, reference compound]?
**A.** development of ONJ-like lesions at the tooth extraction sites [2]: appeared to be prevented; inhibition of Rap1A prenylation (accumulated unprenylated Rap1A) (Rap1A prenylation): not

**Q.** With `O=C(NCC(O)C[n+]1cccc(CC(O)(P(=O)(O)O)P(=O)(O)O)c1)c1ccc(C2=c3cc4c5c(c3Oc3c2cc2c6c3CCCN6CCC2)CCC[N+]=5CCC4)c(C(=O)O)c1` (centres unmarked) [ROX-RIS] as the compound, how does the “concentration of challenging ROX-RIS that displaced pre-adsorbed 5-FAM-RIS” value ([1]; CaP wells pre-treated with 50 μM 5-FAM-RIS) read?
**A.** ≥ 1 µM

**Q.** And the “influence of the fluorophore on hydroxyapatite affinity” value [3]?
**A.** enhancement

**Q.** And the “fluorescent signal in palatal bone around the injection site” value (mouse maxilla)?
**A.** localized red fluorescent signal

**Q.** For `O=P(O)(O)C(O)P(=O)(O)O` [MHDP, methylene hydroxyl bisphosphonate], which anti-resorptive effect ([4]; FIG. 19A) is on record?
**A.** lack of anti-resorptive activity; also recorded: lack of anti-resorptive effect

**Q.** What about the “histology of maxilla at the tooth extraction site: ONJ-like lesion” value [2] of the same compound?
**A.** did not develop an ONJ-like lesion

**Q.** What about the “development of ONJ-like lesions” value ([2]; IV injection of 100 μg one day prior to extraction) of the same compound?
**A.** prevented the development of ONJ-like lesions

**Q.** And the “development of ONJ-like lesions at the tooth extraction sites” value [2]?
**A.** appeared to be prevented

**Q.** What about the “development of ONJ-like lesions” value ([2]; intra-oral injection of 2 μg one day prior to extraction) of the same compound?
**A.** prevented the development of ONJ-like lesions

**Q.** And the “inhibition of Rap1A prenylation (accumulated unprenylated Rap1A)” value (Rap1A prenylation)?
**A.** not

**Q.** For `O=P(O)(O)C(O)(Cn1ccnc1)P(=O)(O)O` [ZOL, zoledronate], which “bone volume over tissue volume (BV/TV)” value ([4]; FIG. 19A, trabecular bone) is on record?
**A.** increased

**Q.** What about the “connectivity density (ConnD)” value ([4]; FIG. 19A, trabecular bone) of the same compound?
**A.** decreased

**Q.** And the anti-resorptive effect ([4]; FIG. 19A)?
**A.** significant anti-resorptive effect

**Q.** What about the connectivity density [4, 5] of the same compound?
**A.** nearly doubled

**Q.** What about the “volume of femur trabecular bone (BV/TV)” value [4, 5] of the same compound?
**A.** nearly doubled

**Q.** And the bone structural parameters ([4]; IV 184 μM×100 μL, femurs 2 weeks after injection, FIG. 14)?
**A.** significantly increased

**Q.** What about the “ZOL-injected mice with open oral wound” value ([2]; 2 weeks of tooth extraction) of the same compound?
**A.** 100%

**Q.** And the “ZOL-injected mice with open oral wound” value ([2]; 4 weeks of tooth extraction)?
**A.** 50%

**Q.** And the “histology of maxilla at the tooth extraction site: ONJ-like lesion” value [2]?
**A.** development of an ONJ-like lesion

**Q.** What about the “tooth extraction wound healing in ZOL-injected mice” value ([2]; ZOL IV, then maxillary first molar extraction) of the same compound?
**A.** delayed wound healing with gingival swelling and jawbone exposure

**Q.** What about the “inhibition of Rap1A prenylation (accumulated unprenylated Rap1A)” value (Rap1A prenylation) of the same compound?
**A.** inhibited Rap1A prenylation
